Experimental data: US4540682A, “Pharmaceutical peptides, preparation, use and intermediates” (Burroughs Wellcome Co., priority 1983, dated 1985)

Tests used:
Male mice (CFLP strain) = assay: Hotplate test; assay type: in vivo; conditions: subcutaneous; test repeated 15 mins. after treatment; as free peptide where appropriate; NE = no effect
Excerpt: (§1) (1) Both the hotplate test (Woolfe and MacDonald, J. Pharmacol. Exp. Ther. 80: 300, 1944) and the irritant-induced writhing (stretch) test (Vander Wende and Margolin, Fed. Proc. 15: 494, 1956) are standard in the art for the investigation of analgesic activity. Whereas it is believed that the pain in the latter can be ameliorated either centrally or peripherally, it is thought that that induced in the hotplate test is affected only at the central level.
Male mice (CFLP strain, Hacking and Churchill) were individually placed in a copper-bottomed perspex box suspended in a water bath at 55° C. and observed for signs of discomfort such as shaking or licking the paws, the reaction time (up to a maximum of 30 secs.) being recorded. Groups of five animals then received either a test compound or saline vehicle (0.85%) control by subcutaneous injection, the test being repeated at 15 mins. after treatment. The ED50 figures for the test compounds were calculated from the number of animals having a posttreatment reaction time which was twice the pretreatment figure.

female CD1 mice = assay: Irritant-induced writhing test, phenylbenzoquinone (PBQ); assay type: in vivo; conditions: Mus musculus, po, 0.5 h; p.o.; *test compound administered 30 min. prior to PBQ; read-out: (B) Writhing PBQ ED50 p.o.
Excerpt: as §1
(ii) Phenylbenzoquinone (PBQ). This test was carried out in a parallel manner to that employing acetic acid, except that the period over which the writhing/stretching movements were counted began 10 mins. after administration of the PBQ irritant, the latter being given at a dosage of 2.5 mg/kg and in a dose volume of 10 ml/kg. The ED50 figures for the test compounds were calculated, using linear regression analysis, as the dose in the presence of which only half the number of writhes/stretches was induced compared with the controls.

| Compound | (A) Hotplate ED50 (Male mice (CFLP strain)) | ED50 (female CD1 mice) |
| --- | --- | --- |
| CC(C)=CCN1CCC2(C)c3cc(O)ccc3CC1C2C (stereo not drawn) [Pentazocine] | NE @ 100 | – |
| COc1ccc2c(c1)c(CC(=O)O)c(C)n2C(=O)c1ccc(Cl)cc1 [Indomethacin] | NE @ 100 | – |
| CN1CC[C@]23c4c5ccc(O)c4O[C@H]2[C@@H](O)C=C[C@H]3[C@H]1C5 [Morphine] | – | 3.5 mg/kg |
